# Source: ChEMBL document CHEMBL2216752, “Carnitine palmitoyltransferase (CPT) modulators: a medicinal chemistry perspective on 35 years of research” (J Med Chem, 2011)
# Assays:
# [1] = biological target: T1, Carnitine O-palmitoyltransferase 2, mitochondrial (Homo sapiens, UniProt P23786); assay: Inhibition of human CPT2
# T1 sequence (P23786 whole entry): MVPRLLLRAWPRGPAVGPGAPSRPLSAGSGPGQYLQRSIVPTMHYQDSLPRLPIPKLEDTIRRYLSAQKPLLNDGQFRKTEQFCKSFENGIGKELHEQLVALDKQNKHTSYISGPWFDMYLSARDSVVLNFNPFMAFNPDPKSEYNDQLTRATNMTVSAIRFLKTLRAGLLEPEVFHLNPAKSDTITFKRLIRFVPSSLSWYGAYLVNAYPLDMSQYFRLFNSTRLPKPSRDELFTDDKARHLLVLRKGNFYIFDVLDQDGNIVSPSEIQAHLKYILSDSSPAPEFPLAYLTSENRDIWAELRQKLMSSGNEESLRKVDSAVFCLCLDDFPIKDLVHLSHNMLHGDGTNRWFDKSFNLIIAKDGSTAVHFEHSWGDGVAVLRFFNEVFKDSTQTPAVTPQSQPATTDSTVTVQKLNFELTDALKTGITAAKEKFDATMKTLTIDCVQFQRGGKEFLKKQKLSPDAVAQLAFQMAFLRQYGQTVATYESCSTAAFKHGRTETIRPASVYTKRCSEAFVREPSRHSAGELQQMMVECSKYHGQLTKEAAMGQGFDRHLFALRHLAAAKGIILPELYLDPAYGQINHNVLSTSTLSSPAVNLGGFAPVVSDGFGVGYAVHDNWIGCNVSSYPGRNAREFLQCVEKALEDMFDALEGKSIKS
# [2] = biological target: T2, Carnitine O-palmitoyltransferase 1, muscle isoform (Homo sapiens, UniProt Q92523); assay: Inhibition of human CPT1B
# T2 sequence (Q92523 whole entry): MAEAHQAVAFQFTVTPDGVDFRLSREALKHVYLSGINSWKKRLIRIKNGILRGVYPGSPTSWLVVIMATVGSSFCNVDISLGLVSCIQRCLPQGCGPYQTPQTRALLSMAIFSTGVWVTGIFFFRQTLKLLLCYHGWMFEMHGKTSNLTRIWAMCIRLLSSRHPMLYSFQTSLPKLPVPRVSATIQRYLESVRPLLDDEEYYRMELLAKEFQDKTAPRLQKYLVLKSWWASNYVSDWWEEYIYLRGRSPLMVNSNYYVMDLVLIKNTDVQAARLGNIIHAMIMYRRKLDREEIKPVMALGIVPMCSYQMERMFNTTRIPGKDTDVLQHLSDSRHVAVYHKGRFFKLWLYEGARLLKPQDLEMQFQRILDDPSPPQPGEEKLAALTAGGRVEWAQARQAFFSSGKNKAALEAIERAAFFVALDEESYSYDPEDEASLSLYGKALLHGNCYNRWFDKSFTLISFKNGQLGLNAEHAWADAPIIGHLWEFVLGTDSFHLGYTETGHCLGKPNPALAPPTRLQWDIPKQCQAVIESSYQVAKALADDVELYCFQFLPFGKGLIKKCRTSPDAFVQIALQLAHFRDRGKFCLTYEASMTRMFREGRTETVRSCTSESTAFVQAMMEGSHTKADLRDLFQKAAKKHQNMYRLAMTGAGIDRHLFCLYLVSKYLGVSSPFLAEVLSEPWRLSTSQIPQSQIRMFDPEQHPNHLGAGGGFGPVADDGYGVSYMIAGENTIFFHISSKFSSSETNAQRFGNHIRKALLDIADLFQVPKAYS
# [3] = Inhibition of human FAO
# [4] = biological target: T3, Carnitine O-palmitoyltransferase 1, liver isoform (Homo sapiens, UniProt P50416); assay: Inhibition of human CPT1A
# T3 sequence (P50416 whole entry): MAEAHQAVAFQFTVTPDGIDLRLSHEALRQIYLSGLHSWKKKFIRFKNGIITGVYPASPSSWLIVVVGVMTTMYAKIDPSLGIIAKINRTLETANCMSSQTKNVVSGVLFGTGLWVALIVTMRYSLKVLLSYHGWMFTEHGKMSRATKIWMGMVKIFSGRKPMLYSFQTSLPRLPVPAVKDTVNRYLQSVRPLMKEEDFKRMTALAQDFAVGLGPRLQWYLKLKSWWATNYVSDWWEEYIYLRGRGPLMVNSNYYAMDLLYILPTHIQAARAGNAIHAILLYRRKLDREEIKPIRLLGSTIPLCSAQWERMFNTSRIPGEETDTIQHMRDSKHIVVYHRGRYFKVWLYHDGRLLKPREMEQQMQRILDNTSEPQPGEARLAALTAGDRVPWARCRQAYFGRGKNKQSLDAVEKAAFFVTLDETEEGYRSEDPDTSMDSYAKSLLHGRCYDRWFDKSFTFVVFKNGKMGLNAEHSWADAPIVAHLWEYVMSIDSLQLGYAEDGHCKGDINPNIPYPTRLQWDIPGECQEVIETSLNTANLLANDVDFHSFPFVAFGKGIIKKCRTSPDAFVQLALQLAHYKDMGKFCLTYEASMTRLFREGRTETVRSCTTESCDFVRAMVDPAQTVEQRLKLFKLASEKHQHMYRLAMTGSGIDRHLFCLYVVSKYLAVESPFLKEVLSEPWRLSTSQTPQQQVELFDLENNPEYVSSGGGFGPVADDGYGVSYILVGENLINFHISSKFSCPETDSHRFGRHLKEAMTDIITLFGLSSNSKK
# [5] = biological target: T4, Carnitine O-palmitoyltransferase 2, mitochondrial (Rattus norvegicus, UniProt P18886); assay: Inhibition of rat CPT2
# T4 sequence (P18886 whole entry): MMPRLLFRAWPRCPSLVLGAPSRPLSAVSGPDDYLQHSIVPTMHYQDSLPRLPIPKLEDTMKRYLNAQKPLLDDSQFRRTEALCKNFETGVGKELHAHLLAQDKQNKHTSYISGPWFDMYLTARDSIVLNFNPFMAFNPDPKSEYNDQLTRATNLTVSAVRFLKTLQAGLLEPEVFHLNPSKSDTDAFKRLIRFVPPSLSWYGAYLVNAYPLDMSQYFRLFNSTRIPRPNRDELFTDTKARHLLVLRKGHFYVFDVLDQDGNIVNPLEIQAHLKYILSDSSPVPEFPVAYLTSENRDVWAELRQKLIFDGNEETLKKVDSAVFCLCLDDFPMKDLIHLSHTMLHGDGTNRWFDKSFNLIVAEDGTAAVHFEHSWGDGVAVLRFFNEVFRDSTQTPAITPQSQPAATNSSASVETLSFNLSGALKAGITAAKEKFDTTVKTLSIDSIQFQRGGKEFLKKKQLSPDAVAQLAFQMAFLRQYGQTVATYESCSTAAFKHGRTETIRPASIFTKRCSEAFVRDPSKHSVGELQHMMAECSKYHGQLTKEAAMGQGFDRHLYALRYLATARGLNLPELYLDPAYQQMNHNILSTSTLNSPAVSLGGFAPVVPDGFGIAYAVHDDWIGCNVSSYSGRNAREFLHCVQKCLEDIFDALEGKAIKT
# [6] = biological target: T2, Carnitine O-palmitoyltransferase 1, muscle isoform; assay: Inhibition of CPT1B in liver mitochondria
# [7] = biological target: T2, Carnitine O-palmitoyltransferase 1, muscle isoform; assay: Inhibition of CPT1B in heart mitochondria
# [8] = Inhibition of rat FAO
# [9] = system: Rattus norvegicus; assay: Increase in plasma VLDL level in fasted Wistar rat at 16 mg/kg, ip; type: functional; conditions: route intraperitoneal
# [10] = system: Rattus norvegicus; assay: Increase in plasma LDL level in fasted Wistar rat at 16 mg/kg, ip; type: functional; conditions: route intraperitoneal
# [11] = Inhibition of carnitine palmitoyltransferase in 24 hrs fasted rat liver mitochondria assessed as palmitoylcarnitine oxidation by radiometry
# [12] = system: Rattus norvegicus; assay: Increase in plasma FFA level in fasted Wistar rat at 16 mg/kg, ip; type: functional; conditions: route intraperitoneal
# [13] = system: Rattus norvegicus; assay: Reduction in palmitate oxidation in rat liver mitochondria at 18 mg/kg, ip administered as single dose measured 24 hrs post dose; type: functional; set-up: scale not given: the % may be the effect or the level left; conditions: route intraperitoneal
# [14] = system: Rattus norvegicus; assay: Increase in plasma TG level in fasted Wistar rat at 16 mg/kg, ip; type: functional; conditions: route intraperitoneal
# [15] = biological target: T4, Carnitine O-palmitoyltransferase 2, mitochondrial; assay: Inhibition of CPT2 in 24 hrs fasted rat liver mitochondria assessed as palmitoylcarnitine oxidation by radiometry
# [16] = Inhibition of carnitine palmitoyltransferase in rat mitochondria
# [17] = Inhibition of carnitine palmitoyltransferase in 20 hrs fasted Sprague-Dawley rat liver mitochondria assessed as palmitate oxidation by radiometry
# [18] = Inhibition of carnitine palmitoyltransferase in 20 hrs fasted Sprague-Dawley rat liver mitochondria assessed as palmitoylcarnitine oxidation by radiometry
# [19] = system: Rattus norvegicus; assay: Reduction in plasma glucose level in fasted Wistar rat at 16 mg/kg, ip; type: functional; set-up: scale not given: the % may be the effect or the level left; conditions: route intraperitoneal
# [20] = biological target: Carnitine O-palmitoyltransferase 1, muscle isoform (Rattus norvegicus, UniProt Q63704); assay: Inhibition of […] in rat myocardium; type: tissue-based
# Chain of Carnitine O-palmitoyltransferase 1, muscle isoform (Rattus norvegicus, UniProt Q63704) (Q63704 whole entry, canonical isoform): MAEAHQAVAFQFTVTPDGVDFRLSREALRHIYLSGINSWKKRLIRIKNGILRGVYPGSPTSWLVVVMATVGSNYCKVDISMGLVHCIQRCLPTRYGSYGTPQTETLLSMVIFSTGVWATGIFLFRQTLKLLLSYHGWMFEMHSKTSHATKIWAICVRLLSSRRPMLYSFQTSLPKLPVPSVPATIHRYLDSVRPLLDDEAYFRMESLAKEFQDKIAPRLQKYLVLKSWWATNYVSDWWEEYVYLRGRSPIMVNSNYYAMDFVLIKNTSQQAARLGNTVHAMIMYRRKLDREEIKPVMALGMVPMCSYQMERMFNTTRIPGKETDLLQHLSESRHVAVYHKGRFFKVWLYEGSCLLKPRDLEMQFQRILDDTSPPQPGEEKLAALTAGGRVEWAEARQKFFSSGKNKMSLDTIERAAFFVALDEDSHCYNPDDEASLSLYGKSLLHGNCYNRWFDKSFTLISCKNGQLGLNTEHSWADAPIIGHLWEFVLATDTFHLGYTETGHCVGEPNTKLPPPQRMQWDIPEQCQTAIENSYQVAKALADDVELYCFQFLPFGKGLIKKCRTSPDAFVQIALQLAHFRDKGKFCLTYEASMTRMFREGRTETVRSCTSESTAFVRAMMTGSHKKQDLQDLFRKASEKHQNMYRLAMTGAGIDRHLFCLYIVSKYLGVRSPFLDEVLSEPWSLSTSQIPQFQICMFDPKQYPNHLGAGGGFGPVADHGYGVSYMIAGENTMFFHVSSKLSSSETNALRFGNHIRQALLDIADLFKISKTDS
# [21] = biological target: T5, Carnitine O-palmitoyltransferase 1, liver isoform (Rattus norvegicus, UniProt P32198); assay: Inhibition of rat CPT1 in rat mitochondria
# T5 sequence (P32198 whole entry): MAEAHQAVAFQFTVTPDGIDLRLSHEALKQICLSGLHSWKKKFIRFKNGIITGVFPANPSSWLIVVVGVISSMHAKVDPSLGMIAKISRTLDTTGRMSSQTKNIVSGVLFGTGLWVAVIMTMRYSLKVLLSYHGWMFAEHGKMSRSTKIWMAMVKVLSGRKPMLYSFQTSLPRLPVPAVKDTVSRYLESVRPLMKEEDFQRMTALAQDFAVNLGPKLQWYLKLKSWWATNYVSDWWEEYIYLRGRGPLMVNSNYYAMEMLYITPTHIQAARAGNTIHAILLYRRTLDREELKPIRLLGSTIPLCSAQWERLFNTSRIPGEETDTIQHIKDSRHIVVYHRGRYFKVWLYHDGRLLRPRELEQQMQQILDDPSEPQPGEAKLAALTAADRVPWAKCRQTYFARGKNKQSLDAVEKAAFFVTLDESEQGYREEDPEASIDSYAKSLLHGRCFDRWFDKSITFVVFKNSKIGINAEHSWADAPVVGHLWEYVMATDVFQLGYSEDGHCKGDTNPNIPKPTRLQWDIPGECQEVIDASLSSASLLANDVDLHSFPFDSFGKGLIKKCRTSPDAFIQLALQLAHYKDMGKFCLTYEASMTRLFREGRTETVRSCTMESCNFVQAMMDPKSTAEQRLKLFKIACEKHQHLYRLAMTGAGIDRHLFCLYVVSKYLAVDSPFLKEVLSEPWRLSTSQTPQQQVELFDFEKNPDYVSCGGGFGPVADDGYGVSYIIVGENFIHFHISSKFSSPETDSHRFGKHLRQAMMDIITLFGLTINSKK
# [22] = biological target: T4, Carnitine O-palmitoyltransferase 2, mitochondrial; assay: Inhibition of rat CPT2 in rat mitochondria
# [23] = Inhibition of FAO
# [24] = Inhibition of carnitine palmitoyltransferase in 18 hr fasted rat hepatocytes; type: cell-based; conditions: hepatocyte
# [25] = Inhibition of carnitine palmitoyltransferase in 18 hr fasted rat liver homogenates; type: tissue-based
SMILES,IC50 [1],IC50 [2],IC50 [3],IC50 [4],IC50 [5],IC50 [8],also measured
O=C(O)C(=O)c1ccc(O)cc1,> 100 µM,60.3 µM,33.3 µM,> 100 µM,> 100 µM,> 100 µM,IC50 [6]: 510 µM; IC50 [7]: 11 µM
C[N+](C)(C)C[C@H](N)CC(=O)[O-],3.9 µM,> 100 µM,–,76.4 µM,5.1 µM,–,Activity [9]: 1034%; Activity [10]: 88%; IC50 [11]: 5.4 µM; Activity [12]: 244%; Activity [13]: 68%; Activity [14]: 684%; IC50 [15]: 0.8 µM; IC50 [16]: 3.2 µM; IC50 [17]: 3.2 µM; IC50 [18]: 12 µM; Activity [19]: 16%
COc1ccc(CN2CCNCC2)c(OC)c1OC [TRIMETAZIDINE],> 100 µM,> 100 µM,20.5 µM,> 100 µM,–,> 100 µM,IC50 [20]: 1.3 µM
COc1cccc2c1C(=O)c1c(O)c3c(c(O)c1C2=O)C[C@@](O)(C(=O)CO)C[C@@H]3O[C@H]1C[C@H](N)[C@H](O)[C@H](C)O1 [DOXORUBICIN],–,–,–,–,–,–,IC50 [21]: 250 µM; IC50 [22]: > 100 µM
CCCCCCCCCCCCCCCC(=O)N[C@H](CC(=O)[O-])C[N+](C)(C)C [PALMITOYLAMINOCARNITINE],0.14 µM,21.7 µM,2.8 µM,2.67 µM,–,0.27 µM,IC50 [23]: 0.05 µM; IC50 [24]: 1.2 µM; IC50 [25]: 1.3 µM
